From ChEMBL document CHEMBL6087456 (J Med Chem, 2025)

Assays:
Plasmodium falciparum [1] = test: Antiparasitic activity against asexual blood stage Plasmodium falciparum 3D7 incubated for 72 hrs by SYBR Green assay; assay type: functional, organism-based; conditions: 3D7, 72 h
[2] = Cytotoxicity against human Jurkat cells by Cell Titer Glo assay; assay type: toxicity, cell-based
Plasmodium falciparum [3] = test: Antiparasitic activity against Plasmodium falciparum 3D7 assessed as parasitic reduction ratio at 10 times EC50 pretreated for 120 hrs followed by compound removal and replacement of media without compound measured after 28 days by cell killing assay; assay type: functional
[4] = Oral bioavailability in overnight-fasted male Sprague-Dawley rat at 3 mg/kg measured upto 72 hrs by LCMS analysis; assay type: ADME, organism-based; conditions: in vivo
[5] = Oral absorption in overnight-fasted male Sprague-Dawley rat at 3 mg/kg measured upto 72 hrs by LCMS analysis; assay type: ADME, organism-based; conditions: in vivo
Cytochrome P450 1A2 [6] = target: T1, Cytochrome P450 1A2 (Homo sapiens, UniProt P05177); test: Inhibition of CYP1A2 in human liver microsomes; assay type: ADME, Microsome
T1 sequence (P05177 whole entry): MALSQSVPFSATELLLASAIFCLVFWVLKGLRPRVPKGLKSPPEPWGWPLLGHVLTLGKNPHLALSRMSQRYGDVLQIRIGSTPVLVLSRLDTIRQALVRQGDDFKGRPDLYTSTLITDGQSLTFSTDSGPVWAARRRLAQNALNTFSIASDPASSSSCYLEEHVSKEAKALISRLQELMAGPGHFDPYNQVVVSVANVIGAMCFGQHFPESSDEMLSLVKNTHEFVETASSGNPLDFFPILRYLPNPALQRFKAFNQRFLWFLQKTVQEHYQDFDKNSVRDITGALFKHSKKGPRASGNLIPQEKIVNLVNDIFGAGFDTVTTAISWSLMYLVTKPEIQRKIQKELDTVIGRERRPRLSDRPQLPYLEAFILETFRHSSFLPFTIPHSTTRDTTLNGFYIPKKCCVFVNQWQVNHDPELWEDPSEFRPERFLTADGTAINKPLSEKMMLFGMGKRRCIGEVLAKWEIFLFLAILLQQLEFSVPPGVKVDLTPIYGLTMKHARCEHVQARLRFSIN

Cytochrome P450 2D6 = Cytochrome P450 2D6 (Homo sapiens, UniProt P10635); test: Inhibition of CYP2D6 in human liver microsomes; assay type: ADME, Microsome
Sequence of Cytochrome P450 2D6 (P10635 whole entry): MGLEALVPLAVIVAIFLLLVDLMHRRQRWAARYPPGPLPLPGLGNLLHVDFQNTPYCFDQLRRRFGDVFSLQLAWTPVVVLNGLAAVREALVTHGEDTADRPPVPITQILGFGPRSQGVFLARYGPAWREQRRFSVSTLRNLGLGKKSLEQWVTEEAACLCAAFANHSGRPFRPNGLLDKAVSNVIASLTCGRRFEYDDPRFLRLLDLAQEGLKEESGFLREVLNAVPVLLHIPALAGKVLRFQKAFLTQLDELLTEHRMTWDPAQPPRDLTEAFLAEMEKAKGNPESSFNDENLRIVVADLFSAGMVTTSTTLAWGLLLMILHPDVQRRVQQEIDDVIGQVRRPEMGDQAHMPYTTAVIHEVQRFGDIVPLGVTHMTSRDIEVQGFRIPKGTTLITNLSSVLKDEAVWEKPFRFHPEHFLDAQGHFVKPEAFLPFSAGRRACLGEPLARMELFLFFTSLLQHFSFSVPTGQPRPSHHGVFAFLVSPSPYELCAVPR

Cytochrome P450 1A2 [7] = target: T1, Cytochrome P450 1A2; test: Time-dependent inhibition of CYP1A2 in human liver microsomes; assay type: ADME, Microsome
Cytochrome P450 2C8 = target: T2, Cytochrome P450 2C8 (Homo sapiens, UniProt P10632); test: Time-dependent inhibition of CYP2C8 in human liver microsomes; assay type: ADME, Microsome
T2 sequence (P10632 whole entry): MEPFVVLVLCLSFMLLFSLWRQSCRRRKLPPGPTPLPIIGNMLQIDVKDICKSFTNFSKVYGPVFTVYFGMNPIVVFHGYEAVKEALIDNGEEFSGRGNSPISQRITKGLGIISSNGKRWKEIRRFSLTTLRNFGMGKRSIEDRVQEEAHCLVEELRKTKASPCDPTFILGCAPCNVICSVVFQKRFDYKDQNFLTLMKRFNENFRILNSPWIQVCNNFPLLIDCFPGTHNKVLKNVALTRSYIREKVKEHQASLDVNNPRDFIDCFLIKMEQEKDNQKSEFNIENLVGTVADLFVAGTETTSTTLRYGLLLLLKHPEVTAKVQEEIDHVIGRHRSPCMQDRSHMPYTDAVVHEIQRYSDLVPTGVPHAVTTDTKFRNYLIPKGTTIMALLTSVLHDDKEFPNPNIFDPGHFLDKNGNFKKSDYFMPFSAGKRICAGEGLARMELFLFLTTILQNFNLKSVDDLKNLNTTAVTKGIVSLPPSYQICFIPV

Cytochrome P450 2C9 = Cytochrome P450 2C9 (Homo sapiens, UniProt P11712); test: Time-dependent inhibition of CYP2C9 in human liver microsomes; assay type: ADME, Microsome
Sequence of Cytochrome P450 2C9 (P11712 whole entry): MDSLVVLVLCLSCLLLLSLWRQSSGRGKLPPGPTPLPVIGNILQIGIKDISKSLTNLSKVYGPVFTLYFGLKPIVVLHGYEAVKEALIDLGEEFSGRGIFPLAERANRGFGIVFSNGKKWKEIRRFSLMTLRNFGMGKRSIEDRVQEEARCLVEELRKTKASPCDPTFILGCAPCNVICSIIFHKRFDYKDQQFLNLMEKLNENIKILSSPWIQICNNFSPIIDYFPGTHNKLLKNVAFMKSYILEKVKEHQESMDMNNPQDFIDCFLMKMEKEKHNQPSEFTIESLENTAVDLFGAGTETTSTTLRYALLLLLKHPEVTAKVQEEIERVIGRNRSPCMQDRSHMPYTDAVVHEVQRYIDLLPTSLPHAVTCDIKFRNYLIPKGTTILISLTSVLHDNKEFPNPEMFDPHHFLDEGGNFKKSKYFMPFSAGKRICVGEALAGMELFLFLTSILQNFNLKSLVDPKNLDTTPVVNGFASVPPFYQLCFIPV

Cytochrome P450 2C19 = Cytochrome P450 2C19 (Homo sapiens, UniProt P33261); test: Time-dependent inhibition of CYP2C19 in human liver microsomes; assay type: ADME, Microsome
Sequence of Cytochrome P450 2C19 (P33261 whole entry): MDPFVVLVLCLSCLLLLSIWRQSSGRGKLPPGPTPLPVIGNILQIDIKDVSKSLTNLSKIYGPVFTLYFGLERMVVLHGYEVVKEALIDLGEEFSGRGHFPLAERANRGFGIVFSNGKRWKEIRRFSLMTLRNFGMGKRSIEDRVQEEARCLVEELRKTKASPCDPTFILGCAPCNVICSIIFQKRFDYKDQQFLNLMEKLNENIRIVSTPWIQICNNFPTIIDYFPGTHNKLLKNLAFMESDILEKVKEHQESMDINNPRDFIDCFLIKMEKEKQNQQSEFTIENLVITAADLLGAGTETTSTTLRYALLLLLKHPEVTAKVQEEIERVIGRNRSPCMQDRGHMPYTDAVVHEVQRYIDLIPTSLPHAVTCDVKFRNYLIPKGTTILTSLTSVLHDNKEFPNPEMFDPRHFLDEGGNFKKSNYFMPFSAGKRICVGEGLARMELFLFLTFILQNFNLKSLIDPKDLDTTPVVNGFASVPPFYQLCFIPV

Cytochrome P450 3A5 = Cytochrome P450 3A5 (Homo sapiens, UniProt P20815); test: Time-dependent inhibition of CYP3A5 in human liver microsomes; assay type: ADME, Microsome
Sequence of Cytochrome P450 3A5 (P20815 whole entry): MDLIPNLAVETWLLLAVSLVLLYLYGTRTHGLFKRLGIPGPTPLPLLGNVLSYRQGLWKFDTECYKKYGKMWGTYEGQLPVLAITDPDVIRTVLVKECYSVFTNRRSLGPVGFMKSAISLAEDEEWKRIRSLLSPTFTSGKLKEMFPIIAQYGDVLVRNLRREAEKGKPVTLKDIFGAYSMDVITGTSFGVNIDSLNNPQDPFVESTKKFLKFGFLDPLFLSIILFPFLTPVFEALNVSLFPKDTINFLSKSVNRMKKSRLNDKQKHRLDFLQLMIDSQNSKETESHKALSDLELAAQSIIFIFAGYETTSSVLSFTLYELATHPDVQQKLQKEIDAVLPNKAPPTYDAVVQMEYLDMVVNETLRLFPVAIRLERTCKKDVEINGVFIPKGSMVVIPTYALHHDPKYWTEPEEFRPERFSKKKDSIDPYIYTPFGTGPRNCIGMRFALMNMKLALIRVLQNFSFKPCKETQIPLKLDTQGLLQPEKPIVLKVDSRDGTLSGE

Compound: Cn1nc2c(=O)n(C3CC3)cnc2c1[C@](O)(c1cnc(C(F)(F)F)c(Cl)c1)C(F)(F)F
- EC50 (Plasmodium falciparum [1]): 0.001 µM
- CC50 [2]: > 20 µM
- log(activity) (Plasmodium falciparum [3]): 2.9
- F [4]: > 89%
- Fa at 72 h [5]: 100%
- IC50 (Cytochrome P450 1A2 [6]): > 20 µM
- IC50 (Cytochrome P450 2D6): > 20 µM
- TDI (Cytochrome P450 1A2 [7]): Not_active
- TDI (Cytochrome P450 2C8): Not_active
- TDI (Cytochrome P450 2C9): Not_active
- TDI (Cytochrome P450 2C19): Not_active
- TDI (Cytochrome P450 3A5): Not_active
